Some test systems named below: MOLT-4 leukemia; A549 NSCLC; HT29 colon; 786-0 renal; SNB-75 CNS; RXF 393 renal; SR leukemia; MDA-MB-231 breast; DU-145 prostate; T-47D breast.
Common to all, as to experiment: NCI anticancer screen, dose series, 48 h

SMILES strings stand for the structures.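 Following 48 hours of exposure in 96-well plates, responses at five concentrations were used to interpolate endpoints linearly. Abbreviation: GI50, concentration required for 50% inhibition of growth. The concentration for full growth arrest is given as TGI.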

Consider `NCCCNCc1c2ccccc2c(CNCCCN)c2ccccc12`, for which the TGI in the experiment with MOLT-4 leukemia is 43.9 µM; with A549 NSCLC, 82.6 µM; with HT29 colon, 94.3 µM; with 786-0 renal it was 36.2 µM; with SNB-75 CNS it was 44 µM; with RXF 393 renal, 35.7 µM.
On to `CC1CCCc2c1n[nH]c2CC1CC(=O)NC(=O)C1` (stereo not given), for which the TGI with MOLT-4 leukemia, with A549 NSCLC, in the experiment with HT29 colon, in the experiment on SR leukemia, with 786-0 renal and in the experiment with SNB-75 CNS was over 100 µM throughout. Also, the TGI in the experiment on RXF 393 renal was over 100 µM.
On to `COC(=O)CCCCCOS(=O)(=O)c1ccc(C)cc1`, for which the TGI in the experiment on MOLT-4 leukemia, in the experiment with A549 NSCLC, in the experiment with HT29 colon, in the experiment with SR leukemia, in the experiment on 786-0 renal and in the experiment with SNB-75 CNS was over 100 µM throughout. This molecule also gave a TGI with RXF 393 renal of over 100 µM.
For `OCC1CC2C=CCC(C2)C1` (stereo not given), the TGI in the experiment with MOLT-4 leukemia, in the experiment with A549 NSCLC, with HT29 colon, in the experiment on SR leukemia, with 786-0 renal and with SNB-75 CNS was over 100 µM in each case. Besides, in the experiment with RXF 393 renal, the TGI is over 100 µM.
As to `C[N+]1(CCNP(=S)(NCC[N+]2(C)Cc3c(ccc4c3OCO4)C3C2c2cc4c(cc2C[C@@H]3O)OCO4)NCC[N+]2(C)Cc3c(ccc4c3OCO4)C3C2c2cc4c(cc2C[C@@H]3O)OCO4)Cc2c(ccc3c2OCO3)C2C1c1cc3c(cc1C[C@H]2O)OCO3` (stereo not given in full), the GI50 was 2.89 µM in the experiment with A549 NSCLC; 1.34 µM in the experiment on HT29 colon; 1.75 µM with SR leukemia; 5.22 µM in the experiment on 786-0 renal; 1.18 µM with SNB-75 CNS; 1.76 µM with RXF 393 renal.
Regarding `CC[C@H](C)[C@H](NC(=O)c1ncccn1)C(=O)N(C)[C@H](C[C@@H](OC(C)=O)c1nc(C(=O)N[C@@H](Cc2ccccc2)C[C@H](C)C(=O)OC)cs1)C(C)C`, the GI50 was 2.39 µM in the experiment with MOLT-4 leukemia; 6.23 µM in the experiment on A549 NSCLC; 0.893 µM with HT29 colon; 0.213 µM with SR leukemia; 1.72 µM in the experiment with 786-0 renal; 1.4 µM in the experiment with MDA-MB-231 breast. In addition, the GI50 was 0.768 µM with SNB-75 CNS, 0.809 µM with RXF 393 renal and 1.78 µM with DU-145 prostate. Also, the TGI in the experiment with MOLT-4 leukemia is over 25 µM; in the experiment with A549 NSCLC, over 25 µM; in the experiment on HT29 colon it was over 25 µM; in the experiment with SR leukemia, over 25 µM; in the experiment on 786-0 renal, over 25 µM; with MDA-MB-231 breast it was 10.9 µM. Moreover, the TGI with SNB-75 CNS is over 25 µM; in the experiment on RXF 393 renal, 20.6 µM; with DU-145 prostate, over 25 µM.
Take `CCCC[C@H](CCc1ccccc1)N(C(=O)OC)N1CCC[C@H]1COC`: the TGI is over 100 µM in the experiment with MOLT-4 leukemia; 67.1 µM in the experiment with A549 NSCLC; 29.4 µM with HT29 colon; over 100 µM with SR leukemia; 45.2 µM with 786-0 renal; 79.1 µM in the experiment with SNB-75 CNS. In the experiment on RXF 393 renal, this molecule came in with a TGI of 32.9 µM.
Take `CSc1ccc(Cc2cc(C(C)(C)C)cc(C(C)(C)C)c2O)cc1`: the TGI in the experiment with MOLT-4 leukemia came out at 23.8 µM; in the experiment on A549 NSCLC it was 27.3 µM; in the experiment on HT29 colon, 27.5 µM; in the experiment on SR leukemia, 24.7 µM; in the experiment with 786-0 renal it was 30.4 µM; with SNB-75 CNS, 29.7 µM. Also, the TGI in the experiment with RXF 393 renal is 26.3 µM.
`Oc1ccc(Br)cc1C=NC1CCCCC1`: the TGI in the experiment on MOLT-4 leukemia was over 100 µM; in the experiment with A549 NSCLC it was over 100 µM; with HT29 colon, over 100 µM; with T-47D breast, 75.5 µM; in the experiment with 786-0 renal it was over 100 µM; with MDA-MB-231 breast it was over 100 µM. For the same molecule, the TGI in the experiment on RXF 393 renal and in the experiment on DU-145 prostate was over 100 µM each time.
Take `COc1ccc(/C=C/c2cc(OC)c(OC)c(OC)c2)cc1OC`: the TGI in the experiment on MOLT-4 leukemia, in the experiment on A549 NSCLC, with HT29 colon, in the experiment on SR leukemia, with 786-0 renal and with SNB-75 CNS was over 100 µM in each case. Further, the TGI with RXF 393 renal was over 100 µM.
As for `O=[N+]([O-])c1cc(I)cc(/C=N/NS(=O)(=O)c2ccc(F)cc2)c1O`, the TGI with MOLT-4 leukemia is 57.7 µM; in the experiment on A549 NSCLC, over 100 µM; with HT29 colon, 46.5 µM; in the experiment on SR leukemia, 46.2 µM; in the experiment with 786-0 renal, 82.9 µM; with SNB-75 CNS, 66.3 µM. Moreover, the TGI in the experiment on RXF 393 renal amounted to 49.9 µM.
Take `C=C(C)[C@@H]1C/C=C(/COC(C)=O)CC[C@H]2O[C@@]2(C)CC/C=C(\C)CC1`: the GI50 in the experiment on MOLT-4 leukemia was 28.4 µM; in the experiment with A549 NSCLC, 40.1 µM; with SR leukemia, 34.3 µM; in the experiment on T-47D breast it was over 100 µM; in the experiment with 786-0 renal, 67.9 µM; with RXF 393 renal it was 33.6 µM. In addition, the GI50 in the experiment on DU-145 prostate was over 100 µM. Moreover, the TGI in the experiment on MOLT-4 leukemia is 82.3 µM; with A549 NSCLC, over 100 µM; with SR leukemia, 91.5 µM; with T-47D breast, over 100 µM; with 786-0 renal it was over 100 µM; with RXF 393 renal it was over 100 µM. In the experiment on DU-145 prostate, this molecule returned a TGI of over 100 µM.
Turning to `CC1=NC(C)=C(/C(C)=N/NC(=O)c2ccccc2O)C(C)/C1=C(/C)NNC(=O)c1ccccc1O` (stereo not given), the TGI in the experiment with MOLT-4 leukemia is 23.8 µM; in the experiment with A549 NSCLC, 96.5 µM; with HT29 colon, over 100 µM; in the experiment with SR leukemia it was 42.5 µM; in the experiment with 786-0 renal, 44.3 µM; with SNB-75 CNS, 93.6 µM. The molecule further yielded a TGI in the experiment on RXF 393 renal of 26.2 µM.
For the molecule `COc1ccc(OC)c(-c2cc(-c3ccc(Cl)cc3)nn2-c2ccccc2)c1`, the GI50 is 8.7 µM with MOLT-4 leukemia; 65.8 µM with A549 NSCLC; 4.34 µM with SR leukemia; 17.3 µM with 786-0 renal; 17.8 µM in the experiment on MDA-MB-231 breast; 96.7 µM in the experiment on DU-145 prostate. The TGI in the experiment on MOLT-4 leukemia was over 100 µM; with A549 NSCLC, over 100 µM; with SR leukemia, over 100 µM; with 786-0 renal, 57.7 µM; in the experiment on MDA-MB-231 breast, 80 µM; with DU-145 prostate, over 100 µM.

The values above are taken from PubChem BioAssay (NCI).
